The record followed here is patent US10875855B2 (priority 2011, dated 2020).

For assay [1], the system named is influenza A virus (A/PR/8/34). Kind of assay: MDCK cytopathic effect (CPE) cell protection assay, ATP detection. Particulars: Influenza A virus, PR/8, MDCK. Type of assay: cell-based.
Assay [2] has as its system influenza A virus (A/PR/8/34). Kind of assay: microbe, parasite or virus in culture. Type of assay: cell-based.
[3] abbreviates: 72 h, Table 1, MDCK cells, A/PR/8/34, 72 hours, 50% cell protection, mean all, class symbol, read-out: MDCK IC50.
Where [4] appears, read: Influenza A virus, PR/8, Table 1, mean all, class symbol, read-out: bDNA EC99.
[5] abbreviates: Influenza A virus, PR/8, Table 1, viral RNA 50% of control wells, mean all, class symbol, read-out: bDNA EC50.
Setting [6] is: Table 2, class symbol in brackets, read-out: MDCK cell IC50 (uM), class.
Where [7] appears, read: Table 2, comparison compounds of WO2005/095400, mean value, read-out: MDCK cell IC50.

Read-outs that look alike come from different tables or passages of the source. Bounds are passed on as bounds.

With `CC1(C(CC(=O)O)Nc2nc(-c3n[nH]c4ncc(F)cc34)ncc2F)CCCC1` (racemic) [Compound 12, (+/−)-3-(5-fluoro-2-(5-fluoro-1H-pyrazolo[3,4-b]pyridin-3-yl)pyrimidin-4-ylamino)-3-(1-methylcyclopentyl)propanoic acid], the IC50 in assay [1] (setting [3]) was below 0.3 µM. In addition, in assay [2] (setting [4]), the EC99 is below 0.3 µM. For the same compound, in assay [2] (setting [5]), the EC50 is below 300 nM.
For the compound `CC(C)(C)C(CCO)Nc1nc(-c2c[nH]c3ncc(F)cc23)c(C#N)cc1F` (racemic) [Compound 41, (+/−)-5-fluoro-2-(5-fluoro-1H-pyrrolo[2,3-b]pyridin-3-yl)-6-(1-hydroxy-4,4-dimethylpentan-3-ylamino)pyridine-3-carbonitrile], in assay [1] (setting [3]), the IC50 is below 0.3 µM. For the same compound, the EC99 in assay [2] (setting [4]) fell in the range of 0.3 to 3.3 µM. The half-maximal effective concentration (EC50) in assay [2] (setting [5]) is below 300 nM.
Consider `O=C(O)CC(Nc1nc(-c2c[nH]c3ncc(F)cc23)ncc1F)C1CCC1` (racemic) [Compound 44, (+/−)-3-cyclobutyl-3-((5-fluoro-2-(5-fluoro-1H-pyrrolo[2,3-b]pyridin-3-yl)pyrimidin-4-yl)amino)propanoic acid], for which the IC50 in assay [1] (setting [3]) was below 0.3 µM. In addition, in assay [2] (setting [4]), the EC99 was 0.3 to 3.3 µM. For the same compound, the EC50 in assay [2] (setting [5]) lay within 300 to 3300 nM.
For the compound `CC(C)(C)C(CCO)Nc1nc(-c2c[nH]c3ncc(F)cc23)ncc1F` (racemic) [Compound 45, (+/−)-3-((5-fluoro-2-(5-fluoro-1H-pyrrolo[2,3-b]pyridin-3-yl)pyrimidin-4-yl)amino)-4,4-dimethylpentan-1-ol], in assay [1] (setting [3]), the IC50 was 0.3 to 3.3 µM. Further, the EC99 in assay [2] (setting [4]) was above 3.3 µM. In assay [2] (setting [5]), the EC50 is below 300 nM.
Turning to `CC(C)(C)C(Cc1nn[nH]n1)Nc1nc(-c2c[nH]c3ncc(F)cc23)ncc1F` (racemic) [Compound 55, (+/−)-N-(3,3-dimethyl-1-(2H-tetrazol-5-yl)butan-2-yl)-5-fluoro-2-(5-fluoro-1H-pyrrolo[2,3-b]pyridin-3-yl)pyrimidin-4-amine], in assay [1] (setting [3]), the IC50 is below 0.3 µM. Besides, the EC99 in assay [2] (setting [4]) lay in the range of 0.3 to 3.3 µM. Besides, the EC50 in assay [2] (setting [5]) was below 300 nM.
On to `CC(C)(C)C(Cc1cc(O)no1)Nc1nc(-c2c[nH]c3ncc(F)cc23)ncc1F` (racemic) [Compound 62, (+/−)-5-(2-((5-fluoro-2-(5-fluoro-1H-pyrrolo[2,3-b]pyridin-3-yl)pyrimidin-4-yl)amino)-3,3-dimethylbutyl)isoxazol-3-ol], for which, in assay [1] (setting [3]), the IC50 is below 0.3 µM. In assay [2] (setting [4]), the EC99 fell in the range of 0.3 to 3.3 µM. Further, the EC50 in assay [2] (setting [5]) is 300 to 3300 nM.
In the case of `CC(C)(C)C(Cc1nc(=O)o[nH]1)Nc1nc(-c2c[nH]c3ncc(F)cc23)ncc1F` (racemic) [Compound 65, (+/−)-3-(2-((5-fluoro-2-(5-fluoro-1H-pyrrolo[2,3-b]pyridin-3-yl)pyrimidin-4-yl)amino)-3,3-dimethylbutyl)-1,2,4-oxadiazol-5(2H)-one], the IC50 in assay [1] (setting [3]) was below 0.3 µM. Besides, the EC99 in assay [2] (setting [4]) lay within 0.3 to 3.3 µM. For the same compound, in assay [2] (setting [5]), the EC50 is below 300 nM.
In the case of `O=C(O)CC(Nc1nc(-c2c[nH]c3ncc(F)cc23)ncc1F)C1(C(F)(F)F)CCCC1` (racemic) [Compound 75, (+/−)-3-(5-fluoro-2-(5-fluoro-1H-pyrrolo[2,3-b]pyridin-3-yl)pyrimidin-4-ylamino)-3-(1-(trifluoromethyl)cyclopentyl)propanoic acid], in assay [1] (setting [3]), the IC50 is above 3.3 µM. In assay [2] (setting [4]), the EC99 was above 3.3 µM. Moreover, the EC50 in assay [2] (setting [5]) lay within 300 to 3300 nM.
In the case of `CC(C)(CF)C(CC(=O)O)Nc1nc(-c2c[nH]c3ncc(F)cc23)ncc1F` (racemic) [Compound 76, (+/−)-5-Fluoro-3-((5-fluoro-2-(5-fluoro-1H-pyrrolo[2,3-b]pyridin-3-yl)pyrimidin-4-yl)amino)-4,4-dimethylpentanoic acid], the IC50 in assay [1] (setting [3]) was 0.3 to 3.3 µM; in assay [1] (exemplary data, MDCK cell protection, read-out: IC50) it was 0.423 µM. Further, the EC99 was 0.3 to 3.3 µM in assay [2] (setting [4]) and 1.4 µM in assay [2] (exemplary data, bDNA). Further, the EC50 in assay [2] (setting [5]) is below 300 nM; in assay [2] (Influenza A virus, PR/8, exemplary data, bDNA, read-out: EC50), 250 nM.
With `CCOC(=O)CC(Nc1nc(-c2c[nH]c3ncc(F)cc23)ncc1F)C1(C)CCCCC1` (racemic) [Compound 77, (+/−)-ethyl 3-(5-fluoro-2-(5-fluoro-1H-pyrrolo[2,3-b]pyridin-3-yl)pyrimidin-4-ylamino)-3-(1-methylcyclohexyl)propanoate], the IC50 in assay [1] (setting [3]) was above 3.3 µM. The EC99 in assay [2] (setting [4]) was above 3.3 µM. Further, the EC50 in assay [2] (setting [5]) was 300 to 3300 nM.
Take `CC(C)(C(CC(=O)O)Nc1nc(-c2c[nH]c3ncc(F)cc23)ncc1F)C(F)(F)F` (racemic) [Compound 79, (+/−)-5,5,5-Trifluoro-3-(5-fluoro-2-(5-fluoro-1H-pyrrolo[2,3-b]pyridin-3-yl)pyrimidin-4-ylamino)-4,4-dimethylpentanoic acid]: in assay [1] (setting [3]), the IC50 was in the range of 0.3 to 3.3 µM. In assay [2] (setting [4]), the EC99 was 0.3 to 3.3 µM. In addition, the EC50 in assay [2] (setting [5]) was below 300 nM.
For the compound `CC1(C(CC(=O)O)Nc2nc(-c3c[nH]c4ncc(Cl)cc34)ncc2F)CCCCC1` (racemic) [Compound 83, (+/−)-3-(2-(5-Chloro-1H-pyrrolo[2,3-b]pyridin-3-yl)-5-fluoropyrimidin-4-ylamino)-3-(1-methylcyclohexyl)propanoic acid], in assay [1] (setting [3]), the IC50 is 0.3 to 3.3 µM. Further, in assay [2] (setting [4]), the EC99 fell in the range of 0.3 to 3.3 µM. In assay [2] (setting [5]), the EC50 is below 300 nM.
In the case of `CC(CF)(CF)C(CC(=O)O)Nc1nc(-c2c[nH]c3ncc(F)cc23)ncc1F` (racemic) [Compound 84, (+/−)-5-Fluoro-3-((5-fluoro-2-(5-fluoro-1H-pyrrolo[2,3-b]pyridin-3-yl)pyrimidin-4-yl)amino)-4-(fluoromethyl)-4-methylpentanoic acid], the IC50 in assay [1] (setting [3]) is 0.3 to 3.3 µM. Moreover, in assay [2] (setting [4]), the EC99 was above 3.3 µM. For the same compound, in assay [2] (setting [5]), the EC50 fell in the range of 300 to 3300 nM.
For `CC(C)(C)C(CC(=O)O)Nc1nc(-c2c[nH]c3ncc(F)cc23)ncc1Cl` (racemic) [Compound 85, (+/−)-3-((5-chloro-2-(5-fluoro-1H-pyrrolo[2,3-b]pyridin-3-yl)pyrimidin-4-yl)amino)-4,4-dimethylpentanoic acid] the same measures were 0.3 to 3.3 µM, above 3.3 µM and below 300 nM.
As for `CNS(=O)(=O)C[C@@H](Nc1nc(-c2c[nH]c3ncc(F)cc23)c(C#N)cc1F)C(C)(C)C` [Compound 26, (S)-2-(5-Cyano-3-fluoro-6-(5-fluoro-1H-pyrrolo[2,3-b]pyridin-3-yl)pyridin-2ylamino)-N,3,3-trimethylbutane-1-sulfonamide], the EC99 in assay [2] (setting [4]) was below 0.3 µM. Also, the EC50 in assay [2] (setting [5]) was below 300 nM.
Regarding `CN(C)S(=O)(=O)C[C@@H](Nc1nc(-c2c[nH]c3ncc(F)cc23)c(C#N)cc1F)C(C)(C)C` [Compound 27, (S)-2-(5-Cyano-3-fluoro-6-(5-fluoro-1H-pyrrolo[2,3-b]pyridin-3-yl)pyridin-2ylamino)-N,N,3,3-tetramethylbutane-1-sulfonamide], the EC99 in assay [2] (setting [4]) is 0.3 to 3.3 µM. Also, the EC50 in assay [2] (setting [5]) was below 300 nM.
In the case of `CC(C)(C)[C@@H](CS(=O)(=O)NC1CC1)Nc1nc(-c2c[nH]c3ncc(F)cc23)c(C#N)cc1F` [Compound 28, (S)-2-(5-Cyano-3-fluoro-6-(5-fluoro-1H-pyrrolo[2,3-b]pyridin-3-yl)pyridin-2ylamino)-N-cyclopropyl-3,3-dimethylbutane-1-sulfonamide], the EC99 in assay [2] (setting [4]) was below 0.3 µM. For the same compound, in assay [2] (setting [5]), the EC50 is below 300 nM.
For `COCCNS(=O)(=O)C[C@@H](Nc1nc(-c2c[nH]c3ncc(F)cc23)c(C#N)cc1F)C(C)(C)C` [Compound 29, (S)-2-((5-cyano-3-fluoro-6-(5-fluoro-1H-pyrrolo[2,3-b]pyridin-3-yl)pyridin-2-yl)amino)-N-(2-methoxyethyl)-3,3-dimethylbutane-1-sulfonamide] the same measures were 0.3 to 3.3 µM and below 300 nM.
As for `CC(C)(C)[C@@H](CS(N)(=O)=O)Nc1nc(-c2c[nH]c3ncc(F)cc23)c(C#N)cc1F` [Compound 30, (S)-2-((5-cyano-3-fluoro-6-(5-fluoro-1H-pyrrolo[2,3-b]pyridin-3-yl)pyridin-2-yl)amino)-3,3-dimethylbutane-1-sulfonamide], in assay [2] (setting [4]), the EC99 was below 0.3 µM. The EC50 in assay [2] (setting [5]) was below 300 nM.
As to `CCCNS(=O)(=O)C[C@@H](Nc1nc(-c2c[nH]c3ncc(F)cc23)c(C#N)cc1F)C(C)(C)C` [Compound 31, (S)-2-((5-cyano-3-fluoro-6-(5-fluoro-1H-pyrrolo[2,3-b]pyridin-3-yl)pyridin-2-yl)amino)-3,3-dimethyl-N-propylbutane-1-sulfonamide], the EC99 in assay [2] (setting [4]) was below 0.3 µM. Besides, in assay [2] (setting [5]), the EC50 was below 300 nM.
`CC(C)(C)C(C[S@+]([O-])CC(=O)O)Nc1nc(-c2c[nH]c3ncc(F)cc23)ncc1F` (stereo partly drawn) [Compound 64, 2-((S)-2-(5-fluoro-2-(5-fluoro-1H-pyrrolo[2,3-b]pyridin-3-yl)pyrimidin-4-ylamino)-3,3-dimethylbutylsulfinyl)ethanoic acid]: the EC99 in assay [2] (setting [4]) was above 3.3 µM. For the same compound, the EC50 in assay [2] (setting [5]) is below 300 nM.
In the case of `CC(O)C[C@@H](Nc1nc(-c2c[nH]c3ncc(F)cc23)ncc1F)C(C)(C)C` (stereo partly drawn) [Compound 72, (4R)-4-((5-Fluoro-2-(5-fluoro-1H-pyrrolo[2,3-b]pyridin-3-yl)pyrimidin-4-yl)amino)-5,5-dimethylhexan-2-ol], the 99% effect concentration (EC99) in assay [2] (setting [4]) was above 3.3 µM.
`Clc1cnc2[nH]cc(-c3cccc(NC4CCCCC4)n3)c2c1` [Compound C1, reference compound]: the half-maximal inhibitory concentration (IC50) was above 3.3 µM in assay [1] (setting [6]) and above 20 µM in assay [1] (setting [7]).
For `Clc1cnc2[nH]cc(-c3cccc(NCC4CCCNC4)n3)c2c1` (stereo not shown) [Compound C2, reference compound] the same measures were above 3.3 µM and above 20 µM.

By IC50 is commonly meant the concentration that inhibits the measured activity by half. A word on the EC99: it is the point of the concentration-response curve where the effect stands at 99%. As a reminder, the EC50 is the midpoint of the concentration-response curve.
